Species: Rattus norvegicus
Assay: Open TG-GATES - Regimen: Single
Assay type: toxicity, organism-based, Sprague-Dawley
Design: regimen Single, gender Male, age 6 weeks
Details: in vivo, po, 100 mg/kg, route gavage, dose level Low; for APTT / Bas / Eos / Fbg / Hb / Ht / Lym / MCH / MCHC / MCV / Mono / Neu / PT / Plat / RBC / Ret / WBC: tissue Blood; for KIDNEY_L / KIDNEY_R / KIDNEY_TOTAL: tissue Kidney; for LIVER: tissue Liver; for A/G / ALP / ALT / AST / BUN / CRE / Ca / Cl / DBIL / GLC / IP / K / LDH / Na / PL / RALB / TBIL / TC / TG / TP / gamma-GTP: tissue Plasma

Compound: CC(S)C(=O)NCC(=O)O (configuration not stated) [TIOPRONIN]
- TERMINAL_BW (3 h): 208 g
- APTT (3 h): 22.4 s
- Bas (3 h): 0%
- Eos (3 h): 0.6%
- Fbg (3 h): 295.6 mg/dL
- Hb (3 h): 13 g/dL
- Ht (3 h): 39.9%
- Lym (3 h): 79.2%
- MCH (3 h): 20 pg
- MCHC (3 h): 32.6%
- MCV (3 h): 61.6 fL
- Mono (3 h): 2.4%
- Neu (3 h): 16.8%
- PT (3 h): 16.5 s
- Plat (3 h): 113.3 x10_4/uL
- RBC (3 h): 649.2 x10_4/ul
- Ret (3 h): 7.6%
- WBC (3 h): 73.6 x10_2/uL
- KIDNEY_L (3 h): 0.9 g
- KIDNEY_R (3 h): 0.9 g
- KIDNEY_TOTAL (3 h): 1.8 g
- LIVER (3 h): 9 g
- A/G (3 h): 1.2
- ALP (3 h): 1568.4 IU/L
- ALT (3 h): 48.2 IU/L
- AST (3 h): 75.8 IU/L
- BUN (3 h): 10.2 mg/dL
- CRE (3 h): 0.1 mg/dL
- Ca (3 h): 10.7 mg/dL
- Cl (3 h): 106.8 meq/L
- DBIL (3 h): 0 mg/dL
- GLC (3 h): 185.6 mg/dL
- IP (3 h): 8.6 mg/dL
- K (3 h): 4.1 meq/L
- LDH (3 h): 172.8 IU/L
- Na (3 h): 142.8 meq/L
- PL (3 h): 117.6 mg/dL
- RALB (3 h): 2.9 g/dL
- TBIL (3 h): 0.02 mg/dL
- TC (3 h): 68.6 mg/dL
- TG (3 h): 49.6 mg/dL
- TP (3 h): 5.4 g/dL
- gamma-GTP (3 h): 1.8 IU/L
- TERMINAL_BW (6 h): 205.7 g
- APTT (6 h): 22.4 s
- Bas (6 h): 0%
- Eos (6 h): 1%
- Fbg (6 h): 301.8 mg/dL
- Hb (6 h): 12.9 g/dL
- Ht (6 h): 39.5%
- Lym (6 h): 75.8%
- MCH (6 h): 20.1 pg
- MCHC (6 h): 32.6%
- MCV (6 h): 61.6 fL
- Mono (6 h): 2.6%
- Neu (6 h): 20.2%
- PT (6 h): 16 s
- Plat (6 h): 118.6 x10_4/uL
- RBC (6 h): 641.6 x10_4/ul
- Ret (6 h): 7.7%
- WBC (6 h): 93.1 x10_2/uL
- KIDNEY_L (6 h): 0.9 g
- KIDNEY_R (6 h): 0.9 g
- KIDNEY_TOTAL (6 h): 1.9 g
- LIVER (6 h): 8.8 g
- A/G (6 h): 1.2
- ALP (6 h): 1456.8 IU/L
- ALT (6 h): 39.6 IU/L
- AST (6 h): 70.8 IU/L
- BUN (6 h): 8.4 mg/dL
- CRE (6 h): 0.1 mg/dL
- Ca (6 h): 10.6 mg/dL
- Cl (6 h): 105.8 meq/L
- DBIL (6 h): 0 mg/dL
- GLC (6 h): 185.2 mg/dL
- IP (6 h): 9.8 mg/dL
- K (6 h): 4.3 meq/L
- LDH (6 h): 154.6 IU/L
- Na (6 h): 144 meq/L
- PL (6 h): 125.6 mg/dL
- RALB (6 h): 2.9 g/dL
- TBIL (6 h): 0.018 mg/dL
- TC (6 h): 76.4 mg/dL
- TG (6 h): 50.8 mg/dL
- TP (6 h): 5.4 g/dL
- gamma-GTP (6 h): 2 IU/L
- TERMINAL_BW (9 h): 205.8 g
- APTT (9 h): 22.6 s
- Bas (9 h): 0%
- Eos (9 h): 0.2%
- Fbg (9 h): 291.8 mg/dL
- Hb (9 h): 12.5 g/dL
- Ht (9 h): 39.1%
- Lym (9 h): 80.6%
- MCH (9 h): 20.4 pg
- MCHC (9 h): 32%
- MCV (9 h): 63.7 fL
- Mono (9 h): 1.8%
- Neu (9 h): 16.2%
- PT (9 h): 16.4 s
- Plat (9 h): 114 x10_4/uL
- RBC (9 h): 614.2 x10_4/ul
- Ret (9 h): 8.3%
- WBC (9 h): 72.6 x10_2/uL
- KIDNEY_L (9 h): 0.9 g
- KIDNEY_R (9 h): 0.9 g
- KIDNEY_TOTAL (9 h): 1.8 g
- LIVER (9 h): 8.5 g
- A/G (9 h): 1.1
- ALP (9 h): 1275.6 IU/L
- ALT (9 h): 39.2 IU/L
- AST (9 h): 70.2 IU/L
- BUN (9 h): 12.8 mg/dL
- CRE (9 h): 0.1 mg/dL
- Ca (9 h): 10.6 mg/dL
- Cl (9 h): 106.4 meq/L
- DBIL (9 h): 0.002 mg/dL
- GLC (9 h): 190.2 mg/dL
- IP (9 h): 9.5 mg/dL
- K (9 h): 4.2 meq/L
- LDH (9 h): 142.8 IU/L
- Na (9 h): 143.8 meq/L
- PL (9 h): 119.6 mg/dL
- RALB (9 h): 2.8 g/dL
- TBIL (9 h): 0.01 mg/dL
- TC (9 h): 68.8 mg/dL
- TG (9 h): 48.4 mg/dL
- TP (9 h): 5.4 g/dL
- gamma-GTP (9 h): 1.2 IU/L
- TERMINAL_BW (24 h): 222 g
- APTT (24 h): 20.5 s
- Bas (24 h): 0%
- Eos (24 h): 0.8%
- Fbg (24 h): 302.2 mg/dL
- Hb (24 h): 12.9 g/dL
- Ht (24 h): 38.6%
- Lym (24 h): 81.8%
- MCH (24 h): 20.5 pg
- MCHC (24 h): 33.3%
- MCV (24 h): 61.6 fL
- Mono (24 h): 2.6%
- Neu (24 h): 13.8%
- PT (24 h): 16.3 s
- Plat (24 h): 111.9 x10_4/uL
- RBC (24 h): 627.6 x10_4/ul
- Ret (24 h): 7.4%
- WBC (24 h): 75.5 x10_2/uL
- KIDNEY_L (24 h): 1 g
- KIDNEY_R (24 h): 1 g
- KIDNEY_TOTAL (24 h): 1.9 g
- LIVER (24 h): 9.6 g
- A/G (24 h): 1.2
- ALP (24 h): 1761 IU/L
- ALT (24 h): 45.6 IU/L
- AST (24 h): 76.8 IU/L
- BUN (24 h): 15.2 mg/dL
- CRE (24 h): 0.1 mg/dL
- Ca (24 h): 10.8 mg/dL
- Cl (24 h): 106.2 meq/L
- DBIL (24 h): 0 mg/dL
- GLC (24 h): 184.8 mg/dL
- IP (24 h): 7.4 mg/dL
- K (24 h): 4.4 meq/L
- LDH (24 h): 166 IU/L
- Na (24 h): 144.4 meq/L
- PL (24 h): 144 mg/dL
- RALB (24 h): 3 g/dL
- TBIL (24 h): 0.01 mg/dL
- TC (24 h): 82.4 mg/dL
- TG (24 h): 93 mg/dL
- TP (24 h): 5.6 g/dL
- gamma-GTP (24 h): 1.2 IU/L

— ChEMBL document CHEMBL3885861, “Open TG-GATES”
